The source made the active and inactive calls. No cut-off for these calls is given here.
Legend:
[1] = tested on: Mus musculus; assay: Anticonvulsant activity was evaluated by maximal electroshock seizure (MES) test at dose 600 mg/kg; No activity; assay type: functional
[2] = tested on: Mus musculus; assay: Anticonvulsant activity was evaluated by Neurologic toxicity (the rotarod test) at dose 600 mg/kg; No activity; assay type: functional
[3] = tested on: Mus musculus; assay: Anticonvulsant activity was evaluated by subcutaneous pentylenetetrazole (Metrazol) (sc Met) seizure test at dose 600 mg/kg; No activity; assay type: functional
[4] = tested on: Mus musculus; assay: Anticonvulsant activity was evaluated by subcutaneous pentylenetetrazole (Metrazol) (sc Met) seizure test at dose 300 mg/kg; 2=Noticeable activity; assay type: functional
[5] = tested on: Mus musculus; assay: Anticonvulsant activity was evaluated by subcutaneous pentylenetetrazole (Metrazol) (sc Met) seizure test at dose 600 mg/kg; 1=Noticeable activity; assay type: functional
[6] = tested on: Mus musculus; assay: Anticonvulsant activity was evaluated by maximal electroshock seizure (MES) test at dose 300 mg/kg; 2=Noticeable activity; assay type: functional
[7] = tested on: Mus musculus; assay: Anticonvulsant activity was evaluated by Neurologic toxicity (the rotarod test) at dose 600 mg/kg; 1=Noticeable activity; assay type: functional
[8] = species: Mus musculus; assay: Effective dose was evaluated by maximal electroshock seizure (MES) test; assay type: functional
[9] = tested on: Mus musculus; assay: Effective dose was evaluated by subcutaneous pentylenetetrazole (Metrazol) (sc Met) seizure test; NE means not effective; assay type: functional, organism-based
[10] = tested on: Mus musculus; assay: Effective dose was evaluated by subcutaneous pentylenetetrazole (Metrazol) (sc Met) seizure test; assay type: functional
[11] = tested on: Mus musculus; assay: Anticonvulsant activity was evaluated by maximal electroshock seizure (MES) test at dose 600 mg/kg; 1=Noticeable activity; assay type: functional
[12] = tested on: Mus musculus; assay: Anticonvulsant activity was evaluated by Neurologic toxicity (the rotarod test) at dose 300 mg/kg; 2=Noticeable activity; assay type: functional
[13] = tested on: Mus musculus; assay: Anticonvulsant activity was evaluated by subcutaneous pentylenetetrazole (Metrazol) (sc Met) seizure test at dose 100 mg/kg; 3=Noticeable activity; assay type: functional
[14] = Toxic dose was evaluated by neurological toxicity (the rotarod test); assay type: organism-based; conditions: mouse, in vivo
[15] = tested on: Mus musculus; assay: Anticonvulsant activity was evaluated by maximal electroshock seizure (MES) test at dose 100 mg/kg; 3=Noticeable activity; assay type: functional
[16] = tested on: Mus musculus; assay: Anticonvulsant activity was evaluated by subcutaneous pentylenetetrazole (Metrazol) (sc Met) seizure test at dose 30 mg/kg; assay type: functional

Compound: Oc1nc(-c2ccccc2)cn1Cc1ccccc1
- Activity [1]: 0
- Activity [2]: 0
- Activity [3]: 0

Compound: CN1C(=O)NC(c2ccccc2)C1O (centres undefined)
- Activity [4]: 2
- Activity [2]: 0
- Activity [5]: 1

Compound: CC1NC(=O)NC1=O (centres undefined)
- Activity [1]: 0
- Activity [2]: 0
- Activity [3]: 0

Compound: CC1NC(=O)N(Cc2ccccc2)C1O (centres undefined)
- Activity [6]: 2
- Activity [7]: 1
- Activity [5]: 1

Compound: COc1cccc(CCCN2C(=O)NC(C)(C)C2O)c1 (centres undefined)
- Activity [6]: 2
- Activity [4]: 2
- Activity [7]: 1

Compound: O=C1NC(=O)C(c2ccccc2)(c2ccccc2)N1 [PHENYTOIN]
- ED50 [8]: 10 mg/kg
- ED50 [9]: inactive

Compound: O=C1NC(c2ccccc2)C(O)N1c1ccccc1 (centres undefined)
- Activity [1]: 0
- Activity [2]: 0
- Activity [3]: 0

Compound: Cc1cn(C)c(O)n1
- Activity [1]: 0
- Activity [2]: 0
- Activity [3]: 0

Compound: O=C1NCC(O)N1c1ccccc1 (centres undefined)
- Activity [1]: 0
- Activity [2]: 0
- Activity [3]: 0

Compound: O=C1NC(c2ccccc2)C(O)N1Cc1ccccc1 (centres undefined)
- Activity [1]: 0
- Activity [2]: 0
- Activity [3]: 0

Compound: CC1NC(=O)N(c2ccccc2)C1=O (centres undefined)
- Activity [1]: 0
- Activity [3]: 0
- Activity [7]: 1

Compound: O=C1NC(c2ccccc2)C(=O)N1c1ccccc1 (centres undefined)
- Activity [1]: 0
- Activity [2]: 0
- Activity [3]: 0

Compound: CCC1(c2ccccc2)NC(=O)N(C)C1=O (centres undefined) [MEPHENYTOIN]
- ED50 [10]: 31 mg/kg
- ED50 [8]: 61 mg/kg

Compound: COc1cccc(CN2C(=O)NC(C)(C)C2=O)c1
- Activity [11]: 1
- Activity [2]: 0
- Activity [3]: 0

Compound: CC1NC(=O)N(c2ccccc2)C1O (centres undefined)
- Activity [11]: 1
- Activity [7]: 1
- Activity [5]: 1

Compound: COc1cccc(CN2C(=O)NC(C)(C)C2O)c1 (centres undefined)
- Activity [11]: 1
- Activity [2]: 0
- Activity [3]: 0

Compound: CC1(C)NC(=O)N2C=Cc3ccccc3C21 (centres undefined)
- Activity [12]: 2
- Activity [6]: 2
- Activity [4]: 2

Compound: CNC(C)CNCc1ccccc1 (centres undefined)
- Activity [12]: 2
- Activity [1]: 0
- Activity [3]: 0

Compound: CN1C(=O)CNC1=O
- Activity [1]: 0
- Activity [2]: 0
- Activity [3]: 0

Compound: CN1C(=O)NC(c2ccccc2)C1=O (centres undefined)
- ED50 [10]: 26 mg/kg
- ED50 [8]: 75 mg/kg
- Activity [13]: 3
- TD50 [14]: 271 mg/kg
- Activity [7]: 1
- Activity [15]: 3

Compound: COc1ccc2c(c1)CCCN1C(=O)NC(C)(C)C21 (centres undefined)
- Activity [1]: 0
- Activity [2]: 0
- Activity [3]: 0

Compound: O=C1CNC(=O)N1c1ccccc1
- Activity [11]: 1
- Activity [2]: 0
- Activity [3]: 0

Compound: Cn1ccnc1O
- Activity [1]: 0
- Activity [2]: 0
- Activity [3]: 0

Compound: CC(=O)NC(C)C(=O)NCc1ccccc1 (centres undefined)
- ED50 [8]: 77 mg/kg
- Activity [3]: 0
- Activity [7]: 1
- Activity [15]: 3

Compound: CC(N)C(=O)NCc1ccccc1 (centres undefined)
- Activity [12]: 2
- Activity [6]: 2
- Activity [3]: 0

Compound: COc1cc2c(cc1OC)C1N(CC2)C(=O)NC1(C)C (centres undefined)
- Activity [1]: 0
- Activity [3]: 0
- Activity [7]: 1

Compound: Cn1cc(-c2ccccc2)nc1O
- Activity [11]: 1
- Activity [2]: 0
- Activity [5]: 1

Compound: CNCC(NC)c1ccccc1 (centres undefined)
- Activity [12]: 2
- Activity [1]: 0
- Activity [3]: 0

Compound: CC1(C)NC(=O)N(CCc2ccccc2)C1=O
- ED50 [10]: 130 mg/kg
- Activity [12]: 2
- ED50 [8]: 110 mg/kg
- Activity [4]: 2
- TD50 [14]: 243 mg/kg
- Activity [15]: 3

Compound: Cc1cn(-c2ccccc2)c(O)n1
- Activity [11]: 1
- Activity [3]: 0
- Activity [7]: 1

Compound: CC1NC(=O)N(C)C1=O (centres undefined)
- Activity [1]: 0
- Activity [2]: 0
- Activity [3]: 0

Compound: CNC(=O)C(NC(C)=O)c1ccccc1 (centres undefined)
- Activity [1]: 0
- Activity [2]: 0
- Activity [3]: 0

Compound: CC1NC(=O)N(Cc2ccccc2)C1=O (centres undefined)
- Activity [16]: 4
- Activity [4]: 2
- Activity [7]: 1

Compound: Oc1nc(-c2ccccc2)cn1-c1ccccc1
- Activity [1]: 0
- Activity [4]: 2
- Activity [2]: 0

Compound: CN1CC(c2ccccc2)NC1=O (centres undefined)
- Activity [12]: 2
- Activity [6]: 2
- Activity [5]: 1

Compound: O=C1NC(=O)C(c2ccccc2)N1 (centres undefined)
- ED50 [10]: 109 mg/kg
- ED50 [8]: 156 mg/kg
- Activity [6]: 2
- Activity [13]: 3
- TD50 [14]: 399 mg/kg
- Activity [7]: 1

Compound: CC1C(O)N(C)C(=O)N1C (centres undefined)
- Activity [1]: 0
- Activity [2]: 0
- Activity [3]: 0

Compound: Oc1nccn1-c1ccccc1
- ED50 [10]: 173 mg/kg
- Activity [12]: 2
- ED50 [8]: 124 mg/kg
- Activity [4]: 2
- TD50 [14]: 211 mg/kg
- Activity [15]: 3

Compound: Cc1cn(C)c(=O)n1C
- Activity [1]: 0
- Activity [2]: 0
- Activity [3]: 0

Compound: CN1C(=O)NCC1O (centres undefined)
- Activity [1]: 0
- Activity [2]: 0
- Activity [3]: 0

Compound: COc1cccc(CCCN2C(=O)NC(C)(C)C2=O)c1
- Activity [12]: 2
- Activity [6]: 2
- Activity [5]: 1

Compound: O=C1NCC(O)N1Cc1ccccc1 (centres undefined)
- Activity [11]: 1
- Activity [2]: 0
- Activity [3]: 0

Compound: NC(=O)NC(=O)Cc1ccccc1 [PHENACEMIDE]
- ED50 [8]: 87 mg/kg

Compound: Cc1cn(Cc2ccccc2)c(O)n1
- ED50 [8]: 90 mg/kg
- Activity [6]: 2
- Activity [4]: 2
- TD50 [14]: 268 mg/kg
- Activity [7]: 1

Compound: CC1(C)NC(=O)N(CCc2ccccc2)C1O (centres undefined)
- Activity [11]: 1
- Activity [7]: 1
- Activity [5]: 1

Compound: CNC(=O)C(N)c1ccccc1 (centres undefined)
- Activity [1]: 0
- Activity [2]: 0
- Activity [3]: 0

Compound: CC1C(=O)N(C)C(=O)N1C (centres undefined)
- Activity [1]: 0
- Activity [4]: 2
- Activity [2]: 0

Compound: O=C1NC(c2ccccc2)C(=O)N1Cc1ccccc1 (centres undefined)
- Activity [1]: 0
- Activity [2]: 0
- Activity [3]: 0

Compound: CC1NC(=O)N(C)C1O (centres undefined)
- Activity [1]: 0
- Activity [2]: 0
- Activity [3]: 0

Compound: O=C1CNC(=O)N1Cc1ccccc1
- ED50 [10]: 114 mg/kg
- Activity [12]: 2
- ED50 [8]: 65 mg/kg
- Activity [4]: 2
- TD50 [14]: 224 mg/kg
- Activity [15]: 3
